Molecular target: Programmed cell death 1 ligand 1 (Homo sapiens, UniProt Q9NZQ7)
Assay: Binding affinity to His-tagged PD-L1 (unknown origin) assessed as inhibition of interaction with PD1 preincubated for 15 mins followed by PD1 addition measured after 15 mins by HTRF assay

Chain of Programmed cell death 1 ligand 1 (Q9NZQ7 whole entry): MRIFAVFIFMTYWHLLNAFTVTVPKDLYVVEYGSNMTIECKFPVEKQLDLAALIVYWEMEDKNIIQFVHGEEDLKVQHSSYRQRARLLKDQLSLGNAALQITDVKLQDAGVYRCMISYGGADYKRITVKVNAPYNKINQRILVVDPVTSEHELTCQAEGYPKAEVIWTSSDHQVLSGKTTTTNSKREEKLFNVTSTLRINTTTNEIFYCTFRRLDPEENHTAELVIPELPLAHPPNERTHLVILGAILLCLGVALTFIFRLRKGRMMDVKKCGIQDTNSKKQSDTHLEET

Row | Compound | IC50 [nM]
1 | Cc1cc(CN2CCC(C(=O)NCCO)CC2)ccc1OCc1cccc(-c2ccccc2)c1C | 110
2 | COc1cc(OCc2cccc(-c3ccccc3)c2C#N)cc(OC)c1CN1CCCC[C@H]1C(=O)O | 6

Reference: ChEMBL document CHEMBL3580542, “Inhibitors of the PD-1/PD-L1 Pathway Can Mobilize the Immune System: An Innovative Potential Therapy for Cancer and Chronic Infections” (ACS Med Chem Lett, 2015)
